What all share (assay type): physicochemical
A short description of data set [1]: Solubility of iclaprim methanesulfonic acid salt in aqueous/organic solutions, HPLC of supernatant. The following applies: for solubility at 24 h: thermodynamic from solid. On the procedure:
A fixed amount of iclaprim mesylate was suspended in the different aqueous/organic solutions. The suspension was stirred at room temperature for 24 hours. The supernatant of the solutions were analyzed by HPLC to determine the amount of iclaprim in the solution.

A short description of data set [2]: Stress heating of standard formulation (simulated long term storage), HPLC. The following applies: 20 mg/mL in 30% propylene glycol in water, normal atmosphere. Here is the method: Within the scope of the present invention various standard aqueous formulations of 5-[(2RS)-2-cyclopropyl-7,8-dimethoxy-2H-1-benzopyran-5-ylmethyl]-pyrimidine-2,4-diamine and its acid addition salts were tested for long term stability. For example, vials of 5-[(2RS)-2-cyclopropyl-7,8-dimethoxy-2H-1-benzopyran-5-ylmethyl]-pyrimidine-2,4-diamine methanesulfonic acid salt were prepared in 30% propylene glycol in water at a concentration of iclaprim of 20 mg/mL. In order to examine the stability of the above standard formulations a model system was used to simulate long term storage conditions. In this model system, the solutions to be tested are stress heated at 40° C. and 70° C. for at least 12 days. The analysis of the solutions after completion of the heating step were made by means of methods well known to those skilled in the art such as, for example, HPLC measurements. Vials of 5-[(2RS)-2-cyclopropyl-7,8-dimethoxy-2H-1-benzopyran-5-ylmethyl]-pyrimidine-2,4-diamine methanesulfonic acid salt (20 mg/mL) were prepared in 30% propylene glycol in Millipore water under normal atmosphere. In order to examine the stability of the above formulation a model experiment was developed wherein the solutions to be tested are stress heated. It is well know in the art that by heating a test sample at a temperature higher than room temperature (about 20° C.) such as between 40° C. and 70° C. for a prolonged period of time, long storage conditions can be simulated. The analysis of the solutions after completion of the heating step was made by means of visual examinations and HPLC measurements.

The nature of data set [3]: Stability of iclaprim under simulated sterilization conditions at pH<3.5, HPLC. To be noted: 30% propylene glycol or 10% glycofurol in water. On the procedure:
Further stability tests of the above standard formulations were performed, wherein the pH was adjusted with citric acid below 3.5 under simulated sterilization conditions, such as 100° C. for 2 h. Vials of 5-[(2RS)-2-cyclopropyl-7,8-dimethoxy-2H-1-benzopyran-5-ylmethyl]-pyrimidine-2,4-diamine methanesulfonic acid salt were prepared in 30% propylene glycol or 10% glycofurol in water. The pH of the so obtained solution was adjusted to pH 3 with 1M citric acid or to pH 1 with 1N hydrochloric acid, and the vials were heated in order to simulate a sterilization process. The analysis of the solutions after completion of the heating step was performed by means of visual examinations and HPLC measurements.

Like-named read-outs stand apart in the source and are kept apart here.

The source of these data is patent US7947293B2, “Aqueous pharmaceutical formulation” (Arpida AG, priority 2008, dated 2011).

On to `COc1cc(Cc2cnc(N)nc2N)c2c(c1OC)OC(C1CC1)C=C2.CS(=O)(=O)O` (racemic) [iclaprim methanesulfonic acid salt, 5-[(2RS)-2-cyclopropyl-7,8-dimethoxy-2H-1-benzopyran-5-ylmethyl]-pyrimidine-2,4-diamine methanesulfonic acid salt], for which the solubility (usually how much of the substance goes into solution per volume) at 24 h in data set [1] (10% propylene glycol in saline 0.9%, aqueous with cosolvent or surfactant or cyclodextrin, 10% (saline 0.9%) propylene glycol, room temperature, 24 hours, read-out: Solubility calculated form HPLC measurements) is 7500 µg/mL; in data set [1] (aqueous with cosolvent or surfactant or cyclodextrin, 10% aqueous propylene glycol, room temperature, 24 hours, read-out: Solubility calculated form HPLC measurements), 27800 µg/mL; in data set [1] (saline or isotonic, Saline 0.9%, room temperature, 24 hours, read-out: Solubility calculated form HPLC measurements) it was 1200 µg/mL; in data set [1] (saline solution with reduced propylene glycol, aqueous with cosolvent or surfactant or cyclodextrin, in saline solution, reduced propylene glycol, pH above 4.0, read-out: maximal solubility achieved), 7500 µg/mL; in data set [1] (water, room temperature, 24 hours, read-out: Solubility calculated form HPLC measurements) it was 18100 µg/mL. The “concentration at which precipitation was observed” value in data set [1] (saline solutions, e.g. 10% propylene glycol saline solution) is listed as “above 7.5 mg/mL”.
For the compound `COc1cc(Cc2cnc(N)nc2N)c2c(c1OC)OC(C1CC1)C=C2` (racemic) [iclaprim, 5-[(2RS)-2-cyclopropyl-7,8-dimethoxy-2H-1-benzopyran-5-ylmethyl]-pyrimidine-2,4-diamine], the “% iclaprim” value in data set [2] (12 days, 40° C.) is 97.0%; in data set [2] (12 days, 70° C.), 90.0%; in data set [2] (45 days, about 20° C.), 97.5%; in data set [2] (fresh solution, 0 min, about 20° C.), 99.1%; in data set [3] (1 h, 37° C., pH 1), 99.0%; in data set [3] (2 h, 100° C., pH 1), 60.0%. Besides, the “% iclaprim” value was 86.5% in data set [3] (2 h, 100° C., pH 3); 96.3% in data set [3] (3 h, 37° C., pH 1); 99.0% in data set [3] (3 h, 37° C., pH 3); 99.1% in data set [3] (fresh solution, 0 min, about 20° C., pH 4.5 (reference, no pH adjustment)).
